“Also recorded” adds a separate entry of the source.
B1: IL-2: murine IL-2 (Preprotech) (protein, UniProt P04351 21-169, looked up)
Interleukin-2: APTSSSTSSSTAEAQQQQQQQQQQQQHLEQLLMDLQELLSRMENYRNLKLPRMLTFKFYLPKQATELKDLQCLEDELGPLRHVLDLTQSKSFQLEDAENFISNIRVTVVKLKGSDNTFECQFDDESATVVDFLRRWIAFCQSIISTSPQ

Tests used:
[1] = system: wild type (SEQ ID NO: 1) and modified (SEQ ID NO: 9) E2 peptides; experiment: Elispot assay of mice immunized with wild type or modified E2 138-147 peptide; assay type: in vivo; details: mice immunized with the labelled peptide
[2] = target: T1, HLA-A2 (Homo sapiens, UniProt P04439, D140Y/D185E/D98H/E176V/E277Q/G131W/G231S/I119V/I121R/I166T/I218V/L300P/L318F/N151K/N90K/P208A/P217A/Q86G/Q94H/R138H/R169H/T345S); experiment: T2 binding assay (HLA-A2 stabilisation on T2 cells, fluorescence index)
T1 construct: The T2 cell expresses HLA-A2 and is TAP1 and TAP2 deficient; endogenous in cells; host or cells: T2 cells
Description: The sequences are derived from HPV 16 E2. T2 cells were loaded with various concentrations of peptides. Level of surface class I molecules were assessed by flow cytometric analysis using mouse monoclonal antibodies specific for HLA-A2. Fluorescence index=Fluorescence after peptide stimulation/Fluorescence without peptide −1.
Since little was known about the MHC class I epitopes for E2, HLA-A2 binding sequences derived from HPV 16 E2 were investigated. […] To test the binding affinity of these peptides to HLA-A2, a T2 binding assay was performed. The T2 cell expresses HLA-A2 and is TAP1 and TAP2 deficient.

[3] = system: C1R.ADD target cells pulsed with E2 peptides; experiment: IFN-gamma ELISPOT assay in immunized AAD mice, response to E2; assay type: in vivo, HLA-A2 transgenic mice (AAD); details: for IFN-gamma producing cells (ELISPOT) / T cell response to E2 (IFN-gamma ELISPOT), in words: AAD mice; for IFN-gamma producing cells (ELISPOT): E2 peptides + GM-CSF + anti-CD40 in IFA, boosted with E2 peptides in IFA; for T cell response to E2 (IFN-gamma ELISPOT), in words: protocol as labelled
Source text: AAD Mice were immunized with three E2 peptides. […] A target cell, C1R.ADD, was pulsed with peptides. C1R.ADD alone was used as negative control, and E7 86-93 was used as a specificity control. Mice are immunized with the indicated 1st immunization and are then given the indicated 2nd immunization (booster immunization) four weeks later. The G1, G2, and G3 immunization protocols employed are as follows: G1 (1st immunization: IFA+GM-CSF+anti-CD40 antibody+E2 peptides; 2nd immunization: IFA+E2 peptides); G2 (1st immunization: IFA+GM-CSF+anti-CD40 antibody+E2 peptides; 2 immunization: none); G3 (1st immunization: none; 2nd immunization: IFA+E2 peptides).
AAD Mice were immunized with different combinations of VLP-E7E2 and E2 peptides with/without Gm-CSF and αCD40. Target cells were pulsed with E2 peptide. Immunization with E7 11-20 peptides is used as a control. The G1 and G2 immunization protocols employed are as follows: G1 (1st immunization: IFA+GM-CSF+anti-CD40 antibody+E2 69-77 peptides); G2 (1st immunization: L1-VLP-L2-E2-E7+GM-CSF+anti-CD40 antibody).
Target cells are C1R.ADD cells pulsed with the indicated peptides.
(§1) Immunization: Mice were immunized subcutaneously at the base of the tail with the chimeric VLPs. GM-CSF (Preprotech, Rocky Hill, N.J.) was given the day before and the same day as the VLP injection. Anti-CD40 (SouthernBiotech, Birmingham Ala.) was given with the VLP. Mice were also immunized with 50 nmoles of peptide in incomplete Freund's adjuvant (IFA) with or without GM-CSF (5 μg/mouse) and anti-CD40 (10 μg/mouse). All vaccines were prepared immediately prior to injection. Each group had 4 mice, and the pooled spleen cells from four mice were used for assays. 10 μg of VLP-E7E2 was given to a mouse. The MW of the VLP-E7E2 is about 5280 Kd (72×L1@55 Kd=3960 Kd, and 12×L2E7E2@110 kd=1320 Kd). The number of moles of VLP-E7E2 in 10 μg of total protein is about […].
ELISPOT assay: The number of IFN-gamma-producing cells is also determined by ELISPOT assay. The anti-IFN-gamma antibody, 5 μg/ml, in PBS are coated on Millipore's multiscreen-HA plate (Millipore, Marlborough, Mass.) overnight at 4° C. The plate is blocked by incubation in RPMI containing 10% FCS for 3 hours at room temperature, and then the plate is washed two or three times with PBS. Target cells, EL-4 or C1R.ADD, are incubated with or without peptides for 2 hour at room temperature, washed twice. Then, they were placed at 5,000 per well. The effector cells were from 40,000 to 50,000 per well. After a 20 hour incubation period at 37° C., the plate is washed six times with PBS containing 0.05% Tween 20. The biotin-labeled anti-IFN-gamma, at 2 μg/ml, is added to the plate. After a 3 hour incubation period at room temperature, the plate is washed six times, and developed using an ABC kit from Vector Lab (Burlingame, Calif.). The spots are counted using Immunspot™ CTL (Cleveland Ohio). Data are expressed as an average from triplicate wells.
Induction of CD8+ T Cell Response to E2 Peptides. […] One group of mice was boosted with E2 peptides in IFA emulsion (IFA-E2) two weeks later. An IFN-gamma ELISPOT assay was performed using spleen cells collected either two or four weeks after vaccination as shown in FIG. 14. The immunization protocol is shown in Table 4 below (50 nmoles of each immunogen was employed; “E2s” refers to E2 peptides).
Enhancing CTL Response to E2. […] When AAD mice were immunized with either 50 nmoles E2 69-77 with immune modulators in IFA or 24 pmoles of VLP-E7E2 with immune-modulators in aqueous solution, a marginal CD8+ T cell response to E2 was detected by ELISPOT assay using fresh isolated spleen cells from both groups of mice (FIG. 15, Panel A and Panel B). […]

[4] = system: EL-4 target cells pulsed with E7 49-57 peptides; experiment: CTL assay (51Cr release) with spleen cells of immunized C57BL/6 mice; assay type: in vivo; details: given in aqueous solution with VLP-E7E2
Description: as §1
(§2) CTL assay: Two (or three) weeks after immunization, spleens were aseptically removed and single cell suspensions are prepared. […] Cytolytic activity of cells is measured by a 4-h assay with ^51Cr-labeled EL-4 or C1R.AAD target cells in triplicate wells. Percent ^51Cr release is calculated as 100×(experimental release-spontaneous release)/(maximum release-spontaneous release). Maximum release is determined from supernatants of cells that are lysed by addition of […]. Spontaneous release is determined from target cells culture in medium. Data are expressed as an average from triplicate wells. […]

[5] = system: C1R.AAD target cells pulsed with E7 11-20 and E7 86-93 peptides; experiment: CTL assay (51Cr release) with spleen cells of immunized AAD mice, response to E7; assay type: in vivo, HLA-A2 transgenic mice (AAD); details: co-injected in aqueous solution
Description: as §1, §2

Row | Molecule | binding to HLA-A2, in words [2] | IFN-gamma producing cells (ELISPOT) [3] | T cell response to E2 (IFN-gamma ELISPOT), in words [3] | concentration at FI 0.5 [2] | further results
1 | YLAEEASVTV [E2 138-147 modified] | higher HLA.A2 binding affinity | – | – | – | immune response to wild type and modified E2 peptides (Elispot) ([1]; listed as modified peptide (SEQ ID NO: 9)): elicit an immune response to both; immune response to wild type and modified E2 peptides (Elispot) ([1]; listed as new peptide (SEQ ID NO: 9)): more immunogenic
2 | YICEEASVTV [E2 138-147] | high binding affinity; also recorded: displayed binding ability | 53 spots/million | induce a CD8+ T cell response; also recorded: immunogenic | 50 µM | immune response to wild type and modified E2 peptides (Elispot) [1]: failed to elicit an immune response; IFN-gamma production (ELISPOT), response to E2 ([3]; boosted with E2 peptides in IFA four weeks after the initial immunization): more immunogenic
3 | TLQDVSLEV [E2 93-101, HPV 16 E2 peptide] | did not bind; also recorded: no binding activity | – | did not elicit a T cell response | – | –
4 | RLNVCQDKIL [E2 7-16, HPV 16 E2 peptide] | no binding activity | – | – | – | –
5 | ALQAIELQL [E2 69-77, HPV 16 E2 peptide] | high binding affinity; also recorded: displayed binding ability | 32 spots/million | induce a CD8+ T cell response; also recorded: immunogenic | 50 µM | –
6 | B1 | – | – | – | – | effect on the VLP-E7E2 induced CTL response [4]: no effect; effect of co-injection on the VLP-E7E2-induced CTL response to E7 [5]: no effect
